Measurements as given in ChEMBL document CHEMBL4321876 (J Med Chem, 2020).

Experiments:
MV4-11 [1] = test: Antiproliferative activity against human MV4-11 cells measured after 3 days by celltiter-glo luminescence assay; type: functional, cell-based; conditions: MV4-11, 72 h
Maver1 = test: Antiproliferative activity against human Maver1 cells measured after 3 days by celltiter-glo luminescence assay; type: functional, cell-based; conditions: Maver1, 72 h
K562 = test: Antiproliferative activity against human K562 cells measured after 3 days by celltiter-glo luminescence assay; type: functional, cell-based; conditions: K562, 72 h
Kasumi 1 = test: Antiproliferative activity against human Kasumi-1 cells measured after 3 days by celltiter-glo luminescence assay; type: functional, cell-based; conditions: Kasumi 1, 72 h
LNCaP-Clone-FGC = test: Antiproliferative activity against human LNCaP-FGC cells measured after 5 days by celltiter-glo luminescence assay; type: functional, cell-based; conditions: 120 h
CWR22R = test: Antiproliferative activity against human 22Rv1 cells measured after 3 days by celltiter-glo luminescence assay; type: functional, cell-based; conditions: 22Rv1, 72 h
MV4-11 [2] = test: Antitumor activity against human MV4-11 cells xenografted in Balb/c mouse assessed as tumor growth inhibition at 100 mg/kg, po administered for 28 days measured twice daily during compound dosing relative to control; type: functional; conditions: MV4-11, po, 672 h, read-out: TGI
[3] = target: Histone acetyltransferase p300 (Homo sapiens, UniProt Q09472); test: Inhibition of p300 (unknown origin) using histone H3 (1 to 21 residues) as substrate preincubated for 15 mins followed by substrate and [3H]acetyl-CoA addition and measured after 60 mins by scintillation counting analysis
[4] = Intrinsic clearance in human liver microsomes assessed per mg protein at 0.1 uM preincubated for 10 mins followed by NADPH addition and measured up to 60 mins by UPLC-MS/MS analysis; type: ADME, Microsome; conditions: read-out: CLH
[5] = Intrinsic clearance in rat liver microsomes assessed per mg protein at 0.1 uM preincubated for 10 mins followed by NADPH addition and measured up to 60 mins by UPLC-MS/MS analysis; type: ADME, Microsome; conditions: read-out: CLH
[6] = Intrinsic clearance in mouse liver microsomes assessed per mg protein at 0.1 uM preincubated for 10 mins followed by NADPH addition and measured up to 60 mins by UPLC-MS/MS analysis; type: ADME, Microsome; conditions: read-out: CLH
[7] = Half life in Sprague-Dawley rat at 3 mg/kg, po by LC-MS/MS analysis; type: ADME, organism-based; conditions: in vivo
[8] = Tmax in Sprague-Dawley rat at 3 mg/kg, po by LC-MS/MS analysis; type: ADME, organism-based; conditions: in vivo
[9] = Cmax in Sprague-Dawley rat at 3 mg/kg, po by LC-MS/MS analysis; type: ADME, organism-based; parameters: dose 3 mg/kg, route oral; conditions: in vivo
[10] = AUClast in Sprague-Dawley rat at 3 mg/kg, po by LC-MS/MS analysis; type: ADME, organism-based; parameters: dose 3 mg/kg, time 0 - last, route oral; conditions: in vivo
[11] = Protein binding in rat plasma; type: ADME, cell-free; conditions: read-out: PPB (converted)
[12] = Half life in Sprague-Dawley rat at 1 mg/kg, iv by LC-MS/MS analysis; type: ADME, organism-based; conditions: in vivo
[13] = Volume of distribution at steady state in Sprague-Dawley rat at 1 mg/kg, iv by LC-MS/MS analysis; type: ADME, organism-based; conditions: in vivo, read-out: Vdss
[14] = AUClast in Sprague-Dawley rat at 1 mg/kg, iv by LC-MS/MS analysis; type: ADME, organism-based; parameters: dose 1 mg/kg, route intravenous, time 0 - last; conditions: in vivo
[15] = Clearance in Sprague-Dawley rat at 1 mg/kg, iv by LC-MS/MS analysis; type: ADME, organism-based; conditions: in vivo
[16] = Oral bioavailability in Sprague-Dawley rat at 3 mg/kg by LC-MS/MS analysis; type: ADME, organism-based; conditions: in vivo

Sequence of Histone acetyltransferase p300 (Q09472 whole entry, the tested form may be a part): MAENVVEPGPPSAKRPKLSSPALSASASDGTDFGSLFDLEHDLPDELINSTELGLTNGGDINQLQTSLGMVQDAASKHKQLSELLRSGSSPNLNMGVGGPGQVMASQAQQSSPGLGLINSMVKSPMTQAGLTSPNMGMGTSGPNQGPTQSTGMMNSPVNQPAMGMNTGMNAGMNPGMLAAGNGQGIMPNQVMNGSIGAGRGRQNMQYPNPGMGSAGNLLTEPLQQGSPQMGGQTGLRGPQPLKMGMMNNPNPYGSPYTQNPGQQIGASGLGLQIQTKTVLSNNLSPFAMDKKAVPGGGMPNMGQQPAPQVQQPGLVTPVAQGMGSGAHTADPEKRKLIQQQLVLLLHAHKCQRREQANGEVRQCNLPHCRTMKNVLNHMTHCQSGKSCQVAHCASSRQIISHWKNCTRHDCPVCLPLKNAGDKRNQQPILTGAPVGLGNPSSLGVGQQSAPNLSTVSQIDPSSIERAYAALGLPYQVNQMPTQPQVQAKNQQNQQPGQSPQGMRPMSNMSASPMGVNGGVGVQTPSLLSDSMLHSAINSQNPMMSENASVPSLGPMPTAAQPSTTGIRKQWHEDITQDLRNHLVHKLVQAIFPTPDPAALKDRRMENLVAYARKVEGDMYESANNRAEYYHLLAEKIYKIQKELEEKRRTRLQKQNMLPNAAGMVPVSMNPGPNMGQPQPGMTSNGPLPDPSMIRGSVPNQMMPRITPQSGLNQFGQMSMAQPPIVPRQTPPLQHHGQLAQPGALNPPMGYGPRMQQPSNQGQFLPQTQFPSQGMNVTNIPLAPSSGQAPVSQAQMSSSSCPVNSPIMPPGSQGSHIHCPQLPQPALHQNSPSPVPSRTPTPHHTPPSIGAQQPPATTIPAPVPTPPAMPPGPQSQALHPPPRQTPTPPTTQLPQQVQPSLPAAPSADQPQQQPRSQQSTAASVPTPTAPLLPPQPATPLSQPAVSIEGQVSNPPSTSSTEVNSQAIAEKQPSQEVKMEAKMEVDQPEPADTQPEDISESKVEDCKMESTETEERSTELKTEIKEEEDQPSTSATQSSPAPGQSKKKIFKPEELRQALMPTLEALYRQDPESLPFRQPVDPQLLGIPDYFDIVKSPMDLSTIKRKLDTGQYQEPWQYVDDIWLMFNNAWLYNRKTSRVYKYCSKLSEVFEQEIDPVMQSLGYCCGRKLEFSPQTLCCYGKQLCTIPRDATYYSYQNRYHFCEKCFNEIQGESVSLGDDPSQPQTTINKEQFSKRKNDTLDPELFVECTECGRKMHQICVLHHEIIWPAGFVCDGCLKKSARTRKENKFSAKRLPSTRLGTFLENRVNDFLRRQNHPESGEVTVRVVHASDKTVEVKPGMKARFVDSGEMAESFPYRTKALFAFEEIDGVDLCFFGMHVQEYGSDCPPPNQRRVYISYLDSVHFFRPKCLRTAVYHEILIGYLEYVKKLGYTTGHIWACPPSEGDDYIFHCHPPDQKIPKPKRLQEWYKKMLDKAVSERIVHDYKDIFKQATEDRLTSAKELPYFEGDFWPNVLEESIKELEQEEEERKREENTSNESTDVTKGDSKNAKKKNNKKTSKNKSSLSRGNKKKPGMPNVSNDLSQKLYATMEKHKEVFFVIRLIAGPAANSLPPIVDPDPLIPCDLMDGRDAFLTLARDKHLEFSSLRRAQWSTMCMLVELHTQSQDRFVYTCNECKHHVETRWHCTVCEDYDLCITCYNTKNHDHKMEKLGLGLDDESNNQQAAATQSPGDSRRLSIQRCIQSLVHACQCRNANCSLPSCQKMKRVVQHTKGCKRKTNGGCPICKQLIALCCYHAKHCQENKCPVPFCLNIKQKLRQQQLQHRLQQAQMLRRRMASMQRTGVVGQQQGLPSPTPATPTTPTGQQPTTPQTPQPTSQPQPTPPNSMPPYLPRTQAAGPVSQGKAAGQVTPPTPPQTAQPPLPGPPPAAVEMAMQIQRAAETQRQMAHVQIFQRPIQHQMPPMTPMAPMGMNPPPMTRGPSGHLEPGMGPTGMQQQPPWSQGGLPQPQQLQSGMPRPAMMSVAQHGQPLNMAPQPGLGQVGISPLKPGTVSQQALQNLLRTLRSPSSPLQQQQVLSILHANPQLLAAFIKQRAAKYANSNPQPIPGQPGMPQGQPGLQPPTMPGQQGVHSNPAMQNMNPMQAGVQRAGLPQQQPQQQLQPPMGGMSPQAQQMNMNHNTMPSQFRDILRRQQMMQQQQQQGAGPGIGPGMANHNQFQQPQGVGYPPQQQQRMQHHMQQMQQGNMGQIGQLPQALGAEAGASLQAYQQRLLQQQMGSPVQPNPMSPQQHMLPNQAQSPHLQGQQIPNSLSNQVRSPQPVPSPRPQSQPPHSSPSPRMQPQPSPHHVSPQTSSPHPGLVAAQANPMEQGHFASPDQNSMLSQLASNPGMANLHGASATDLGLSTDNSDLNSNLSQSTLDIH

IC50 (MV4-11 [1]) [nM] | IC50 [3] [nM] | microsomal CLint at 0.1 µM [4] [µL/min/mg] | microsomal CLint at 0.1 µM [5] [µL/min/mg] | microsomal CLint at 0.1 µM [6] [µL/min/mg] | Structure (SMILES) | also measured
255 | – | – | – | – | CNC(=O)Nc1ccc2c(c1)CC[C@@]21OC(=O)N(CC(=O)N(Cc2ccc(F)cc2)[C@@H](C)C(F)(F)F)C1=O [A-485] | IC50 (Maver1): 226 nM; IC50 (K562): 457 nM; IC50 (Kasumi 1): 608 nM; IC50 (LNCaP-Clone-FGC): 215 nM; IC50 (CWR22R): 490 nM; inhibition in vivo at 100 mg/kg (MV4-11 [2]): 47.1%
206 | 14 | – | – | – | Cn1cc(-c2ccc3c(n2)CC[C@]32NC(=O)N(CC(=O)N3Cc4cc(F)ccc4OC[C@H]3C(F)(F)F)C2=O)cn1 | –
15.8 | 7.5 | 10.2 | 3.1 | 16.4 | CNC(=O)Nc1ccc2c(c1)CC[C@]21NC(=O)N(CC(=O)N2Cc3cc(F)ccc3OC[C@H]2C(F)(F)F)C1=O | half-life [7]: 267 min; Tmax [8]: 15 min; Cmax [9]: 20 nM; AUC(0-t) [10]: 0.054 µM·h
3.7 | 4 | 81.5 | 121 | 113 | Cn1cc(-c2ccc3c(c2)CC[C@@]32OC(=O)N(CC(=O)N3Cc4cc(F)ccc4OC[C@H]3C3CC3)C2=O)cn1 | half-life [7]: 72.6 min; Tmax [8]: 30 min; Cmax [9]: 57 nM; AUC(0-t) [10]: 0.09 µM·h; fraction unbound [11]: 0.007
– | > 1000 | – | – | – | CNC(=O)Nc1ccc2c(c1)CC[C@@]21OC(=O)N(CC(=O)N2Cc3ccccc3C[C@H]2C)C1=O | –
77 | 10 | – | – | – | CNC(=O)Nc1ccc2c(c1)CC[C@]21OC(=O)N(CC(=O)N2Cc3ccccc3CC[C@H]2C(F)(F)F)C1=O | –
2.9 | – | 161 | 94.4 | 106 | CNC(=O)Nc1ccc2c(c1)CC[C@@]21OC(=O)N(CC(=O)N2Cc3ccc(F)cc3CC[C@H]2C(F)(F)F)C1=O | –
12 | 4 | – | – | – | CCC[C@@H]1CCc2ccccc2CN1C(=O)CN1C(=O)O[C@@]2(CCc3cc(NC(=O)NC)ccc32)C1=O | –
72.8 | – | 20.5 | 82.5 | 37.3 | CNC(=O)Nc1ccc2c(c1)CC[C@@]21OC(=O)N(CC(=O)N2Cc3ccccc3OC[C@H]2C)C1=O | –
4 | – | 112 | 258 | 150 | CNC(=O)Nc1ccc2c(c1)CC[C@@]21OC(=O)N(CC(=O)N2Cc3ccc(F)cc3CC[C@H]2C2CC2)C1=O | –
> 500 | 73 | – | – | – | CNC(=O)Nc1ccc2c(c1)CC[C@@]21NC(=O)N(CC(=O)N2Cc3cc(F)ccc3OC[C@H]2C2CC2)C1=O | –
8.8 | 3.7 | 179 | 480 | 197 | CNC(=O)Nc1ccc2c(c1)CC[C@@]21OC(=O)N(CC(=O)N2Cc3ccccc3CC[C@H]2C2CC2)C1=O | half-life [12]: 37.2 min; Vd [13]: 0.88 L/kg; AUC(0-t) [14]: 1.18 µM·h; clearance [15]: 27.9 mL/min/kg; half-life [7]: 100 min; Tmax [8]: 15 min; Cmax [9]: 140 nM; AUC(0-t) [10]: 0.21 µM·h; bioavailability [16]: 6%
3.5 | 1.3 | 33.7 | 40.8 | 155 | Cn1cc(-c2ccc3c(c2)CC[C@]32NC(=O)N(CC(=O)N3Cc4cc(F)ccc4OC[C@H]3C3CC3)C2=O)cn1 | half-life [12]: 41.4 min; Vd [13]: 1 L/kg; AUC(0-t) [14]: 1.53 µM·h; clearance [15]: 20.7 mL/min/kg; half-life [7]: 59.4 min; Tmax [8]: 30 min; Cmax [9]: 620 nM; AUC(0-t) [10]: 0.97 µM·h; bioavailability [16]: 21%; fraction unbound [11]: 0.021
> 1000 | > 500 | – | – | – | CNC(=O)Nc1ccc2c(c1)CC[C@@]21OC(=O)N(CC(=O)N2CCCc3ccccc3C2)C1=O | –
10.7 | 4.3 | 209 | 411 | 360 | CNC(=O)Nc1ccc2c(c1)CC[C@@]21OC(=O)N(CC(=O)N2Cc3ccccc3CC[C@H]2C(C)C)C1=O | –
